In experiment [1] the target is TEM-1 (class A β-lactamase) (Escherichia coli, UniProt P62593). Nature of the experiment: β-Lactamase assay (nitrocefin colour change), TEM-1. Type of experiment: biochemical. The following applies: for TEM-1: Table 10, class symbols x/xx/xxx, key not given. Put shortly: (§1)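 β-Lactamases (10 nM) preincubated with inhibitor 5 min at room temperature, pH 7.0 phosphate, then 100 μM nitrocefin; colour change read after 20 min. B1aR surface domain (1 μM) with inhibitor 20 min, then 20 μM BOCILLIN FL 5 min at 37 °C, SDS-PAGE fluorescence. PBP2 per Villegas-Esterada.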

The target in experiment [2] is P99 (class C β-lactamase) (Enterobacter cloacae, UniProt P05364). Nature of the experiment: β-Lactamase assay (nitrocefin colour change), P99. Type of experiment: biochemical. The settings on record: for P99: Table 10, class symbols x/xx/xxx, key not given; for IC50: nitrocefin 100 μM, 10 nM enzyme, 5 min pre-incubation, read-out: IC50s P99. A digest of the protocol:
as §1

Experiment [3] concerns the target OXA-10 (class D β-lactamase) (Pseudomonas aeruginosa, UniProt P14489). Nature of the experiment: β-Lactamase assay (nitrocefin colour change), OXA-10. It is filed as biochemical. The settings on record: for OXA-10: Table 10, class symbols x/xx/xxx, key not given; for IC50: nitrocefin 100 μM, 10 nM enzyme, 5 min pre-incubation, read-out: IC50s OXA-10. A digest of the protocol: as §1

For experiment [4], the target named is surface domain of B1aR (Staphylococcus aureus, UniProt P18357). Nature of the experiment: B1aR assay (BOCILLIN FL labeling, SDS-PAGE). It is filed as binding, Staphylococcus aureus (MRSA). The settings on record: Table 10; class symbols x/xx/xxx, key not given. The method, then: β-Lactamase Assays (TEM-1, P99, and OXA-10): The activity of the compounds of the invention (inhibitors) toward β-lactamases was evaluated using 96 well plates. The reaction mixture included 10 mM sodium phosphate, pH 7.0, 150 mM sodium chloride, 0.01% Triton X-100, 100 μM nitrocefin, 10 nM of β-lactamases (class A: TEM-1; class C: P99, or class D: OXA-10), and variable concentrations of the inhibitors in a total volume of 100 μL. β-Lactamases were pre-incubated with the compounds at room temperature for 5 minutes, and the assay was initiated by the addition of nitrocefin. The inhibition of the enzyme activity by the compounds was determined by monitoring color change (from yellow to red) of nitrocefin after 20 minutes. Stock solutions of the compounds were prepared in dimethyl sulfoxide (DMSO). No more than 5% DMSO was present in assays, unless noted otherwise. B1aR Assay: The surface domain of B1aR (1 μM) was added to each inhibitor (at various concentrations) in 100 mM sodium phosphate, 50 mM sodium bicarbonate, at pH 7.0. The reaction mixtures were incubated at room temperature for 20 minutes. BOCILLIN FL, a fluorogenic ligand, was added to a concentration of 20 μM in a final volume of 20 μL. The mixtures were incubated at 37° C. for 5 minutes, at which point the reactions were quenched by the addition of 15 μL of the SDS sample buffer (125 mM Tris, 4% SDS, 20% glycerol, 2% 2-mercaptoethanol, pH 6.8), and were boiled for 4 minutes. The samples were loaded onto 15% SDS-PAGE, the gel was developed and scanned using a Storm 840® Fluorimager. The fluorescent bands of BOCILLIN FL-labeled B1aR^S were analyzed by Image Quant 5.2 software. PBP2 Assay: The PBP2 assay was performed according to the methods of Villegas-Esterada et al. (J. Am. Chem. Soc. 2008, 130, 9212-9213).

The subject of experiment [5] is Enterococcus faecalis ATCC 29212. Nature of the experiment: MIC, Table 12. The settings on record: ATCC29212; Enterococcus faecalis ATCC 29212; Brain Heart Infusion Broth; inoculum about 1.5×10^5 CFU/mL; read-out: MIC. It is filed as cell-based. How it is done: (§2) Table 12 illustrates the results and the minimal inhibitory concentration (MIC) for S. aureus, Enterococcus faecalis, Pseudomonas aeruginosa, Klebsiella pneumonia, and Proteus mirabilis. The inoculum is about 1.5×10^5 CFU/mL. The minimal inhibitory concentrations (MIC) were done in Muller-Hinton II Broth with the exception of Enterococcus faecalis ATCC 29212, which was done in Brain Heart Infusion Broth. The concentration of DMSO at 200 μg/mL was 10%.

For experiment [6], the system named is Klebsiella pneumonia ATCC 33495. Nature of the experiment: MIC, Table 12. It is filed as cell-based. The following applies: Klebsiella pneumoniae, ATCC33495, Muller-Hinton II Broth. The method, then:
as §2

Experiment [7] deals with Proteus mirabilis ATCC 35659. Nature of the experiment: MIC, Table 12. It is filed as cell-based. The following applies: ATCC35659, Muller-Hinton II Broth. The method, then:
as §2

For experiment [8], the system named is Pseudomonas aeruginosa ATCC 27853. Nature of the experiment: MIC, Table 12. It is filed as cell-based. The following applies: ATCC27853, Muller-Hinton II Broth. The method, then:
as §2

Experiment [9] relates to Staphylococcus aureus (COLVA). Nature of the experiment: MIC, Table 12. Type of experiment: cell-based. The settings on record: Staphylococcus aureus. How it is done: as §2
The subject of experiment [10] is Staphylococcus aureus ATCC 29213. Nature of the experiment: MIC, Table 12. The settings on record: ATCC29213; Staphylococcus aureus ATCC 29213; Muller-Hinton II Broth; read-out: MIC. Type of experiment: cell-based. How it is done:
as §2

In experiment [11] the test system is Staphylococcus aureus NRS1 (Mec^r. Vani). Nature of the experiment: MIC, Table 12. Type of experiment: cell-based. The following applies: Staphylococcus aureus NRS1 (Mec^r. Vani); Muller-Hinton II Broth; read-out: MIC. How it is done:
as §2

For experiment [12], the system named is Staphylococcus aureus NRS100 (COL). Nature of the experiment: MIC, Table 12. The following applies: Staphylococcus aureus NRS100 (COL); Muller-Hinton II Broth; read-out: MIC. Type of experiment: cell-based. How it is done: as §2
For experiment [13], the system named is Escherichia coli ATCC 29194. Nature of the experiment: MIC, Table 12. Type of experiment: cell-based. The settings on record: ATCC29194, Muller-Hinton II Broth.
The test system of experiment [14] is S. aureus NRS100 (Mec^R). Nature of the experiment: MIC against S. aureus NRS100 (Table 14). Type of experiment: cell-based, Staphylococcus aureus. The settings on record: Staphylococcus aureus, compounds dissolved in DMSO or 1% sodium carbonate, read-out: MIC. How it is done:
The recited compounds were dissolved in DMSO or in 1% sodium carbonate and transferred into micro titer plate to final concentration of 1000 μg/mL.

Molecules are shown by their SMILES. ≈ marks a conversion by molar mass, not a printed value.

TEM-1 (class A β-lactamase), sequence (P62593 24-286 limits assumed): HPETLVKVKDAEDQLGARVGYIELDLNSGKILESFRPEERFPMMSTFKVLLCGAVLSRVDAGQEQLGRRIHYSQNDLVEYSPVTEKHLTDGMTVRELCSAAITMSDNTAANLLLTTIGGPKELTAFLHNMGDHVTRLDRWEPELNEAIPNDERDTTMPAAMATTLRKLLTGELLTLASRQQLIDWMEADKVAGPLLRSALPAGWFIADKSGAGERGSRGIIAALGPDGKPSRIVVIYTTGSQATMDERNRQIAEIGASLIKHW
P99 (class C β-lactamase), sequence (P05364 21-381): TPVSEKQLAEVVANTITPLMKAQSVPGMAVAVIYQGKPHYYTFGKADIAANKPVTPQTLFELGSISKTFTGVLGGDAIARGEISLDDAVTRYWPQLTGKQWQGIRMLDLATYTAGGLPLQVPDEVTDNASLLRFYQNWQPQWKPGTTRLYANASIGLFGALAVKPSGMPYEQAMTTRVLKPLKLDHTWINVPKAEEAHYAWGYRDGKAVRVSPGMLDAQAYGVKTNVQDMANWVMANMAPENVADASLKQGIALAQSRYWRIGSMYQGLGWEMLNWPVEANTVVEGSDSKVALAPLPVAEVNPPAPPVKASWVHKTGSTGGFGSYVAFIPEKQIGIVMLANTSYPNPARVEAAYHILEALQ
OXA-10 (class D β-lactamase), sequence (P14489 20-266, species assumed): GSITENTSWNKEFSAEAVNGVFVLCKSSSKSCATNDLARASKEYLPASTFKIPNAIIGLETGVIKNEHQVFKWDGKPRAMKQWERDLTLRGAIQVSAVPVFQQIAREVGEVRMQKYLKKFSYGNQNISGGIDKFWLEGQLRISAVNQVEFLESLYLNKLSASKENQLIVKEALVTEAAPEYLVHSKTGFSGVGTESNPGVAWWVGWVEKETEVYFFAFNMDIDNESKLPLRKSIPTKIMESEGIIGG
surface domain of B1aR, sequence (P18357 331-585): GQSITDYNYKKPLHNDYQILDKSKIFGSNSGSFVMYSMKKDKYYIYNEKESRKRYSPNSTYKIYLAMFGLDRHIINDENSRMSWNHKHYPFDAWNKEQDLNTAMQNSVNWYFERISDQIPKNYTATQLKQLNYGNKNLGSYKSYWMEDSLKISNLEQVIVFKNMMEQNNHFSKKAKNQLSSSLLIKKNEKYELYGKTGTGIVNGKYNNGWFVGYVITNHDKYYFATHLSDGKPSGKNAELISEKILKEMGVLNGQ

Take `O=C(O)c1c(Cl)c(Cl)c(Cl)c(Cl)c1C(=O)Nc1ccc(OCc2ccccc2)c(Cl)c1` [Compound 253]: the IC50 in experiment [1] came to 32.3 ± 5.9 µM; in [2] it was 105 ± 8.7 µM; in experiment [3], 222 ± 17 µM. Further, the TEM-1 entry in experiment [1] is reported as “xxx”. Also, in [2], the P99 entry is “xxx”. The OXA-10 entry in experiment [3] is “xxx”. For the same molecule, in experiment [4], the BlaR result is “xx”. For the same molecule, the minimal inhibitory concentration (MIC) is 200 µg/mL (≈ 385 µM) in experiment [5]; 200 µg/mL (≈ 385 µM) in [6]; 400 µg/mL (≈ 770 µM) in experiment [7]; 200 µg/mL (≈ 385 µM) in [8]; 50 µg/mL (≈ 96.2 µM) in experiment [9]; 50 µg/mL (≈ 96.2 µM) in experiment [10]. The minimal inhibitory concentration (MIC) in experiment [11] is 50 µg/mL (≈ 96.2 µM); in experiment [12] it was 50 µg/mL (≈ 96.2 µM); in [13], 400 µg/mL (≈ 770 µM); in experiment [14], above 16 µg/mL.

With `CCCCCCCCOc1ccc(NC(=O)c2c(Cl)c(Cl)c(Cl)c(Cl)c2C(=O)O)cc1` [Compound 265], the IC50 amounted to 3.6 ± 0.5 µM in experiment [1], 10.3 ± 0.3 µM in [2] and 9.9 ± 0.8 µM in experiment [3]. For the same molecule, the TEM-1 entry in experiment [1] was “xxx”. For the same molecule, the P99 entry in experiment [2] is on record as “xxx”. In addition, the OXA-10 result in [3] is listed as “xxx”. For the same molecule, the minimal inhibitory concentration (MIC) in experiment [5] stood at 6 µg/mL (≈ 11.8 µM); in [6], 200 µg/mL (≈ 394 µM); in experiment [7], 200 µg/mL (≈ 394 µM); in experiment [8], 200 µg/mL (≈ 394 µM); in experiment [9] it was 6 µg/mL (≈ 11.8 µM); in experiment [10] it was 6 µg/mL (≈ 11.8 µM). Also, the minimum inhibitory concentration (MIC) in [11] is 6 µg/mL (≈ 11.8 µM); in experiment [12], 6 µg/mL (≈ 11.8 µM); in experiment [13] it was 200 µg/mL (≈ 394 µM).

On to `CCCCCCCCOc1ccc(NC(=O)c2c(Br)c(Br)c(Br)c(Br)c2C(=O)O)cc1` [Compound 274], for which the IC50 in experiment [1] is 2.4 ± 0.1 µM; in experiment [2] it was 3.1 ± 0.5 µM; in experiment [3] it was 5.5 ± 0.5 µM. The TEM-1 entry in experiment [1] is “xxx”. The P99 result in experiment [2] was “xxx”. Further, the OXA-10 entry in experiment [3] is on record as “xxx”. In addition, the MIC was 100 µg/mL (≈ 146 µM) in experiment [5]; 200 µg/mL (≈ 292 µM) in experiment [6]; 400 µg/mL (≈ 584 µM) in experiment [7]; 200 µg/mL (≈ 292 µM) in experiment [8]; 3 µg/mL (≈ 4.38 µM) in experiment [9]; 3 µg/mL (≈ 4.38 µM) in experiment [10]. Besides, the figures for the minimum inhibitory concentration (MIC) in experiment [11], in [12] and in experiment [13] were 3 µg/mL (≈ 4.38 µM), 3 µg/mL (≈ 4.38 µM) and 400 µg/mL (≈ 584 µM), respectively.

The values above are taken from patent US8859620B2, “Phthalanilate compounds and methods of use” (University of Notre Dame du Lac, priority 2009, dated 2014).
